The record followed here is patent publication US9688699B2, “3-(pyrimidine-2-yl)imidazo[1,2-a]pyridines” (Bayer Pharma Aktiengesellschaft, priority 2014, dated 2017).

Structures are written as SMILES. Counter-ions that a name gives are not always drawn.

Assay [1] has as its target T1, human phosphodiesterase 5 (PDE 5) (Homo sapiens, UniProt O76074).
T1 construct: PDE 5 preparations are obtained from human platelets by disruption; from tissue; host or cells: human platelets (Mono Q ion exchange fractions with PDE 5 activity)
Put plainly: Inhibition of human phosphodiesterase 5 (PDE 5) (B-3). The format is biochemical. Particulars: PDE 5 preparation from human platelets; [8-3H] cGMP substrate, SPA; in some cases means of individual determinations. The method in brief:
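Enzyme partially purified from human platelets by Mono Q ion exchange; [8-3H]cGMP substrate (0.025 μCi), Tris-HCl pH 7.5 with MgCl2/EDTA, <70% conversion, 60 min at room temperature. Compounds tested at 4 to 0.0018 μM final; yttrium SPA bead read-out, IC50 from concentration–% inhibition plot.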

The target in assay [2] is T2, recombinant guanylate cyclase reporter cell line (Rattus norvegicus, UniProt P19686+P20595).
T2 construct: expressed in transfected cells
T2 sequence (P19686 1-690): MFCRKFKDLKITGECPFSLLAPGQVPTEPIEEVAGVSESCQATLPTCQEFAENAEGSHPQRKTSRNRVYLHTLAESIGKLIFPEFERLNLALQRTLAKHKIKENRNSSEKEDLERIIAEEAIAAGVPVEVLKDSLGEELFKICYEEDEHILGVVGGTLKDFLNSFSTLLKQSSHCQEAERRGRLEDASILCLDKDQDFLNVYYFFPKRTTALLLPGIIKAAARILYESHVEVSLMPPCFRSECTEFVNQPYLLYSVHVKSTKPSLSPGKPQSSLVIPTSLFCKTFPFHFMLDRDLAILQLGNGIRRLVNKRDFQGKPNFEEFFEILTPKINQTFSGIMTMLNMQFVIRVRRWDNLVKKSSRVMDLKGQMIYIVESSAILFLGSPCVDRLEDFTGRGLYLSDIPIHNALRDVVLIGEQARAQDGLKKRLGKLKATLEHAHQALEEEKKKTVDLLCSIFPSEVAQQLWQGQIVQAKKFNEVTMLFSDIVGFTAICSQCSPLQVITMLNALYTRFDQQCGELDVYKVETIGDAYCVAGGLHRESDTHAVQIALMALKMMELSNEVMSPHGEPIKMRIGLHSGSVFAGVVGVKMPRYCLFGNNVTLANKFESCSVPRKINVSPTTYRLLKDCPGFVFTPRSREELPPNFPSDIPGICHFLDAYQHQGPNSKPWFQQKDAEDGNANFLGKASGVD
T2 sequence (P20595 1-619): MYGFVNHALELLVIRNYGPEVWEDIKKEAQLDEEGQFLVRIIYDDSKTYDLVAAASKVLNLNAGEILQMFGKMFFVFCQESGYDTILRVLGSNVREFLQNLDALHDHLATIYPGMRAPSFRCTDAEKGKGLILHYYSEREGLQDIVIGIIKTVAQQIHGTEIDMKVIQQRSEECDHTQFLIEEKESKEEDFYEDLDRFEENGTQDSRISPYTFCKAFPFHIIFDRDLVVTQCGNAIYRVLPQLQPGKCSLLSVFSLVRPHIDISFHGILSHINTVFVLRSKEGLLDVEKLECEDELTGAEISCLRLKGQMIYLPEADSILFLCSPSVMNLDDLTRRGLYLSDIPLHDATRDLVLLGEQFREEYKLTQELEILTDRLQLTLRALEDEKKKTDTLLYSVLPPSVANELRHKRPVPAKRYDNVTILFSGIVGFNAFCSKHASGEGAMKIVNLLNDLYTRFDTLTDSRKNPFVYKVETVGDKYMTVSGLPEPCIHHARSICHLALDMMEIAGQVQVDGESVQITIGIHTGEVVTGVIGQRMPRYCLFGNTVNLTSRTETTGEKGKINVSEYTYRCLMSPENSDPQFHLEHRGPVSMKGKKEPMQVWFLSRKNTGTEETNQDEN
Put plainly: Effect on a recombinant guanylate cyclase reporter cell line (B-2). The format is cell-based. Particulars: MEC = minimum effective concentration, in some cases mean values for individual determinations. As for the experimental part:
B-2. Effect on a Recombinant Guanylate Cyclase Reporter Cell Line
The cellular activity of the compounds according to the invention is determined using a recombinant guanylate cyclase reporter cell line, as described in F. Wunder et al., Anal. Biochem. 339, 104-112 (2005).
Representative MEC values (MEC=minimum effective concentration) for the compounds of the invention are shown in Table 1 below (in some cases as mean values for individual determinations): […]

In assay [1], `Cc1nc2c(OCc3c(F)cccc3F)cccn2c1-c1nc(CN)c2c(n1)NC(=O)C2(C)C` [Example 49, 4-(Aminomethyl)-2-{8-[(2,6-difluorobenzyl)oxy]-2-methylimidazo[1,2-a]pyridin-3-yl}-5,5-dimethyl-5,7-dihydro-6H-pyrrolo[2,3-d]pyrimidin-6-one] displayed an IC50 of 48 nM. Moreover, the MEC in assay [2] stood at 1 µM.
On the same counts, the results for `Cc1nc2c(OCc3c(F)cccc3F)cccn2c1-c1nc(O)c2c(n1)NC(=O)C2(C)C(F)(F)F` (racemic) [Example 8, rac-2-{8-[(2,6-Difluorobenzyl)oxy]-2-methylimidazo[1,2-a]pyridin-3-yl}-4-hydroxy-5-methyl-5-(trifluoromethyl)-5,7-dihydro-6H-pyrrolo[2,3-d]pyrimidin-6-one trifluoroacetate] are 120 nM and 1 µM.
The compound `COc1ccc(CC(C)(N)CNc2nc(-c3c(C)nc4c(OCc5c(F)cccc5F)cccn34)nc3c2C(C)(C)C(=O)N3)cc1` (racemic) [Example 20, rac-4-{[2-amino-3-(4-methoxyphenyl)-2-methylpropyl]amino}-2-{8-[(2,6-difluorobenzyl)oxy]-2-methylimidazo[1,2-a]pyridin-3-yl}-5,5-dimethyl-5,7-dihydro-6H-pyrrolo[2,3-d]pyrimidin-6-one] came in with an IC50 in assay [1] of 110 nM. Also, in assay [2], the MEC was 3 µM.
`Cc1nc2c(OCc3c(F)cccc3F)cccn2c1-c1nc2c(c(N3CCC[C@H]3CO)n1)C(C)(C)C(=O)N2` [Example 36, 2-{8-[(2,6-difluorobenzyl)oxy]-2-methylimidazo[1,2-a]pyridin-3-yl}-4-[(2S)-2-(hydroxymethyl)pyrrolidin-1-yl]-5,5-dimethyl-5,7-dihydro-6H-pyrrolo[2,3-d]pyrimidin-6-one] yielded an IC50 in assay [1] of 20 nM. For the same compound, in assay [2], the MEC came to 0.3 µM.
For `Cc1nc2c(OCc3c(F)ccc(F)c3F)cccn2c1-c1nc2c(c(-c3cc[nH]n3)n1)C(C)(C)C(=O)N2` [Example 74, 5,5-Dimethyl-2-{2-methyl-8-[(2,3,6-trifluorobenzyl)oxy]imidazo[1,2-a]pyridin-3-yl}-4-(1H-pyrazol-5-yl)-5,7-dihydro-6H-pyrrolo[2,3-d]pyrimidin-6-one] the same measures were 30 nM and 1 µM.
Regarding `Cc1nc2c(OCc3c(F)cccc3F)cccn2c1-c1nc(NCC(C)(N)C(F)F)c2c(n1)NC(=O)C2(C)C` (racemic) [Example 39, rac-4-[(2-amino-3,3-difluoro-2-methylpropyl)amino]-2-{8-[(2,6-difluorobenzyl)oxy]-2-methylimidazo[1,2-a]pyridin-3-yl}-5,5-dimethyl-5,7-dihydro-6H-pyrrolo[2,3-d]pyrimidin-6-one], 9.6 nM corresponded to half-maximal inhibition in assay [1] (IC50). Moreover, the MEC in assay [2] was found to be 0.3 µM.
For `COCC(C)(N)CNc1nc(-c2c(C)nc3c(OCc4c(F)ccc(F)c4F)cccn23)nc2c1C(C)(C)C(=O)N2` (racemic) [Example 35, rac-4-[(2-amino-3-methoxy-2-methylpropyl)amino]-5,5-dimethyl-2-{2-methyl-8-[(2,3,6-trifluorobenzyl)oxy]imidazo[1,2-a]pyridin-3-yl}-5,7-dihydro-6H-pyrrolo[2,3-d]pyrimidin-6-one formate] the same measures were 35 nM and 1 µM.
For the compound `Cc1nc2c(OCc3c(F)cccc3F)cccn2c1-c1nc(NCC(N)C(F)(F)F)c2c(n1)NC(=O)C2(C)C` (racemic) [Example 25, rac-4-[(2-amino-3,3,3-trifluoropropyl)amino]-2-{8-[(2,6-difluorobenzyl)oxy]-2-methylimidazo[1,2-a]pyridin-3-yl}-5,5-dimethyl-5,7-dihydro-6H-pyrrolo[2,3-d]pyrimidin-6-one], the IC50 in assay [1] was 15 nM. Also, the MEC in assay [2] turned out to be 3 µM.
For the compound `Cc1nc2c(OCc3c(F)cccc3F)cccn2c1-c1nc(NCC(N)c2ccc(F)c(F)c2)c2c(n1)NC(=O)C2(C)C` (single isomer, unassigned; ent-4) [Example 14, ent-4-{[2-Amino-2-(3,4-difluorophenyl)ethyl]amino}-2-{8-[(2,6-difluorobenzyl)oxy]-2-methylimidazo[1,2-a]pyridin-3-yl}-5,5-dimethyl-5,7-dihydro-6H-pyrrolo[2,3-d]pyrimidin-6-one], in assay [1], the IC50 was 91 nM. In addition, the MEC in assay [2] worked out at 3 µM.
In assay [1], `Cc1cc(OCc2c(F)cccc2F)c2nc(C)c(-c3nnc4c(n3)NC(=O)C4(C)C)n2c1` [Example 69, 3-{8-[(2,6-Difluorobenzyl)oxy]-2,6-dimethylimidazo[1,2-a]pyridin-3-yl}-7,7-dimethyl-5,7-dihydro-6H-pyrrolo[2,3-e][1,2,4]triazin-6-one] registered an IC50 of 790 nM. Besides, the MEC in assay [2] stood at 1 µM.
In the case of `Cc1nc2c(OCc3c(F)ccc(F)c3F)cccn2c1-c1nc2c(c(C(=O)NCC(C)(C)N)n1)C(C)(C)C(=O)N2` [Example 58, N-(2-amino-2-methylpropyl)-5,5-dimethyl-2-{2-methyl-8-[(2,3,6-trifluorobenzyl)oxy]imidazo[1,2-a]pyridin-3-yl}-6-oxo-6,7-dihydro-5H-pyrrolo[2,3-d]pyrimidin-4-carboxamide trifluoroacetate], the IC50 in assay [1] worked out at 5.2 nM. For the same compound, in assay [2], the MEC turned out to be 3 µM.
On the same counts, the results for `Cc1nc2c(OCc3c(F)ccc(F)c3F)cccn2c1-c1nc2c(c(C(=O)NCCC(F)(F)F)n1)C(C)(C)C(=O)N2` [Example 59, 5,5-dimethyl-2-{2-methyl-8-[(2,3,6-trifluorobenzyl)oxy]imidazo[1,2-a]pyridin-3-yl}-6-oxo-N-(3,3,3-trifluoropropyl)-6,7-dihydro-5H-pyrrolo[2,3-d]pyrimidine-4-carboxamide] are 1.7 nM and 0.3 µM.
For the compound `Cc1nc2c(OCc3c(F)ccc(F)c3F)cccn2c1-c1nc(N)c2c(n1)NC(=O)C2(C)C` [Example 9, 4-Amino-5,5-dimethyl-2-{2-methyl-8-[(2,3,6-trifluorobenzyl)oxy]imidazo[1,2-a]pyridin-3-yl}-5,7-dihydro-6H-pyrrolo[2,3-d]pyrimidin-6-one], in assay [1], the IC50 was 17 nM. Also, the MEC in assay [2] stood at 1 µM.
On the same counts, the results for `Cc1nc2c(OCc3c(F)ccc(F)c3F)cccn2c1-c1nc(NCC(C)(C)O)c2c(n1)NC(=O)C2(C)C` [Example 34, 4-[(2-hydroxy-2-methylpropyl)amino]-5,5-dimethyl-2-{2-methyl-8-[(2,3,6-trifluorobenzyl)oxy]imidazo[1,2-a]pyridin-3-yl}-5,7-dihydro-6H-pyrrolo[2,3-d]pyrimidin-6-one] are 5.3 nM and 1 µM.
For the compound `Cc1nc2c(OCc3c(F)cccc3F)cccn2c1-c1nc(CNC(=O)C2CC2)c2c(n1)NC(=O)C2(C)C` [Example 66, N-[(2-{8-[(2,6-Difluorobenzyl)oxy]-2-methylimidazo[1,2-a]pyridin-3-yl}-5,5-dimethyl-6-oxo-6,7-dihydro-5H-pyrrolo[2,3-d]pyrimidin-4-yl)methyl]cyclopropanecarboxamide], half-maximal inhibition in assay [1] (IC50) was put at 48 nM. Besides, the MEC in assay [2] was 3 µM.
`Cc1nc2c(OCc3c(F)cccc3F)cccn2c1-c1nc(NCC(N)(CF)CF)c2c(n1)NC(=O)C2(C)C` [Example 33, 4-{[2-amino-3-fluoro-2-(fluoromethyl)propyl]amino}-2-{8-[(2,6-difluorobenzyl)oxy]-2-methylimidazo[1,2-a]pyridin-3-yl}-5,5-dimethyl-5,7-dihydro-6H-pyrrolo[2,3-d]pyrimidin-6-one] displayed an IC50 in assay [1] of 9.7 nM. Also, in assay [2], the MEC is 1 µM.
